Key:
Test in all cases: relative viability (nuclei count vs DMSO), 5 days (fraction); higher = more cells survive
Alisertib + Vorinostat = compound: COc1cc(Nc2ncc3c(n2)-c2ccc(Cl)cc2C(c2c(F)cccc2OC)=NC3)ccc1C(=O)O [Alisertib] + O=C(CCCCCCC(=O)Nc1ccccc1)NO [Vorinostat] (partner 1 µM)
In short: (§1)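 Dosing by pin tool came one day after lung cancer cell lines were seeded in 1536-well plates, using either one drug or a fixed anchor-drug dose plus five library-drug doses (not always all listed) in √10 steps. After 5 days, nuclei were counted on 4× images. Relative viability is treated-well nuclei count divided by vehicle-well nuclei count, and values are medians of duplicate plates.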

Alisertib + Crizotinib = compound: COc1cc(Nc2ncc3c(n2)-c2ccc(Cl)cc2C(c2c(F)cccc2OC)=NC3)ccc1C(=O)O [Alisertib] + C[C@@H](Oc1cc(-c2cnn(C3CCNCC3)c2)cnc1N)c1c(Cl)ccc(F)c1Cl [Crizotinib] (partner 1 µM)
In short: as §1

Alisertib + Tozasertib = compound: COc1cc(Nc2ncc3c(n2)-c2ccc(Cl)cc2C(c2c(F)cccc2OC)=NC3)ccc1C(=O)O [Alisertib] + Cc1cc(Nc2cc(N3CCN(C)CC3)nc(Sc3ccc(NC(=O)C4CC4)cc3)n2)n[nH]1 [Tozasertib] (partner 0.1 µM)
In short: as §1

Alisertib + Navitoclax = compound: COc1cc(Nc2ncc3c(n2)-c2ccc(Cl)cc2C(c2c(F)cccc2OC)=NC3)ccc1C(=O)O [Alisertib] + CC1(C)CCC(c2ccc(Cl)cc2)=C(CN2CCN(c3ccc(C(=O)NS(=O)(=O)c4ccc(N[C@H](CCN5CCOCC5)CSc5ccccc5)c(S(=O)(=O)C(F)(F)F)c4)cc3)CC2)C1 [Navitoclax] (partner 0.5 µM)
In short: as §1

| Cell Line | relative viability (Alisertib + Vorinostat; first compound 0.005 µM) | relative viability (Alisertib + Vorinostat; first compound 0.01581 µM) | relative viability (Alisertib + Vorinostat; first compound 0.05 µM) | relative viability (Alisertib + Vorinostat; first compound 0.1581 µM) | relative viability (Alisertib + Vorinostat; first compound 0.5 µM) | relative viability (Alisertib + Crizotinib; first compound 0.005 µM) | relative viability (Alisertib + Crizotinib; first compound 0.01581 µM) | relative viability (Alisertib + Crizotinib; first compound 0.05 µM) | relative viability (Alisertib + Crizotinib; first compound 0.1581 µM) | relative viability (Alisertib + Crizotinib; first compound 0.5 µM) | relative viability (Alisertib + Tozasertib; first compound 0.005 µM) | relative viability (Alisertib + Tozasertib; first compound 0.01581 µM) | relative viability (Alisertib + Tozasertib; first compound 0.05 µM) | relative viability (Alisertib + Tozasertib; first compound 0.1581 µM) | relative viability (Alisertib + Tozasertib; first compound 0.5 µM) | relative viability (Alisertib + Navitoclax; first compound 0.005 µM) | relative viability (Alisertib + Navitoclax; first compound 0.01581 µM) | relative viability (Alisertib + Navitoclax; first compound 0.05 µM) | relative viability (Alisertib + Navitoclax; first compound 0.1581 µM) | relative viability (Alisertib + Navitoclax; first compound 0.5 µM) |
| --- | --- | --- | --- | --- | --- | --- | --- | --- | --- | --- | --- | --- | --- | --- | --- | --- | --- | --- | --- | --- |
| CAL-12T | 0.506 | 0.592 | 0.262 | 0.189 | 0.169 | 0.613 | 0.232 | 0.142 | 0.166 | 0.109 | 0.333 | 0.28 | 0.202 | 0.199 | 0.178 | 1.15 | 0.568 | 0.208 | 0.141 | 0.165 |
| EPLC-272H | 0.454 | 0.401 | 0.248 | 0.104 | 0.132 | 0.931 | 0.851 | 0.739 | 0.201 | 0.113 | 0.238 | 0.176 | 0.144 | 0.192 | 0.16 | 1.11 | 0.962 | 0.368 | 0.346 | 0.147 |
| NCI-H2405 | 0.913 | 0.898 | 0.799 | 0.288 | 0.213 | 0.781 | 0.794 | 0.491 | 0.268 | 0.253 | 0.772 | 0.618 | 0.308 | 0.293 | 0.258 | 0.873 | 0.778 | 0.574 | 0.198 | 0.135 |
| HCC-15 | 0.777 | 0.588 | 0.201 | 0.167 | 0.134 | 0.808 | 0.655 | 0.219 | 0.115 | 0.0945 | 0.352 | 0.154 | 0.163 | 0.144 | 0.0961 | 0.657 | 0.517 | 0.27 | 0.12 | 0.103 |
| RERF-LC-KJ | 0.626 | 0.507 | 0.391 | 0.252 | 0.213 | 0.831 | 0.662 | 0.692 | 0.206 | 0.196 | 0.511 | 0.386 | 0.253 | 0.27 | 0.218 | 1.06 | 0.838 | 0.415 | 0.178 | 0.284 |
| NCI-H1944 | 0.573 | 0.52 | 0.339 | 0.183 | 0.188 | 1.05 | 1.04 | 0.504 | 0.386 | 0.222 | 0.242 | 0.239 | 0.258 | 0.195 | 0.187 | 1.06 | 1.01 | 0.969 | 0.415 | 0.194 |
| HARA | 0.44 | 0.131 | 0.0659 | 0.0632 | 0.0823 | 1.05 | 0.796 | 0.277 | 0.169 | 0.135 | 0.103 | 0.0888 | 0.0929 | 0.104 | 0.0887 | 1.15 | 1.14 | 0.544 | 0.281 | 0.0564 |
| NCI-H2126 | 0.682 | 0.802 | 0.366 | 0.207 | 0.198 | 0.96 | 0.945 | 0.486 | 0.365 | 0.311 | 0.798 | 0.637 | 0.405 | 0.293 | 0.288 | 0.819 | 0.874 | 0.574 | 0.276 | 0.266 |
| LXF-289 | 0.587 | 0.493 | 0.189 | 0.139 | 0.188 | 0.762 | 0.443 | 0.204 | 0.186 | 0.178 | 0.169 | 0.14 | 0.128 | 0.141 | 0.0869 | 0.847 | 0.586 | 0.191 | 0.173 | 0.137 |
| NCI-H460 | 0.683 | 0.527 | 0.0348 | 0.039 | 0.0281 | 0.847 | 0.731 | 0.0614 | 0.0166 | 0.0164 | 0.477 | 0.428 | 0.0521 | 0.0419 | 0.0268 | 1.13 | 0.815 | 0.471 | 0.0264 | 0.0172 |
| NCI-H2170 | 0.766 | 0.782 | 0.318 | 0.2 | 0.164 | 1.17 | 1.03 | 0.438 | 0.325 | 0.225 | 0.658 | 0.674 | 0.321 | 0.261 | 0.161 | 0.564 | 0.55 | 0.238 | 0.232 | 0.178 |
| NCI-H2009 | 0.684 | 0.699 | 0.234 | 0.204 | 0.134 | 0.927 | 0.916 | 0.453 | 0.238 | 0.175 | 0.732 | 0.663 | 0.427 | 0.336 | 0.22 | 1.08 | 1.11 | 0.349 | 0.302 | 0.105 |

Reference: the supplement of paper PMC10307832
